# Reference: patent US7196105B2, “Treatment of human multiple myeloma by curcumin” (Research Development Foundation, priority 2002, dated 2007)
# Columns and labels:
# Format in all cases: cell-based, human
# NF-κB = assay: Electrophoretic mobility shift assay (EMSA) for nuclear NF-κB in multiple myeloma cell lines; details: for time of complete downregulation of NF-κB: 50 μM curcumin
# Method: FIG. 1A: Dose response of NF-κB to curcumin treatment of U266 cells. […] FIG. 1B: Effect of exposure duration on curcumin-induced NF-κB suppression in U266 cells. […] FIG. 1C: Effect of exposure duration on curcumin-induced NF-κB suppression in MM.1 cells. Cells were treated as described in FIG. 1B. FIG. 1D: Effect of exposure duration on curcumin-induced NF-κB suppression in MM.1R cells. Cells were treated as described in FIG. 1B. FIG. 1E: Effect of exposure duration on curcumin-induced NF-κB suppression in RPMI 8226. Cells were treated as described in FIG. 1B. FIG. 1F: […] Nuclear extracts were prepared from U266 cells (2×10^6/ml), incubated for 30 min with different antibodies or unlabeled NF-κB oligonucleotide probe, and then assayed for NF-κB by EMSA. […] U266 cells (2×10^6 cells/ml) were treated with indicated concentrations of NEMO-control or NBD-peptide (100 μM) for the indicated times. Nuclear extracts were then checked for the presence of NF-κB DNA-binding activity by EMSA. […] Untreated or NBD-peptide-treated (100 μM; 12 h) U266 cells were cytospun, and p65 immunocytochemistry was performed as described. Red stain indicates the localization of p65 and blue stain indicates nucleus (magnification 200×). […] U266 cells (2×10^6 cells/ml) were treated with indicated concentrations of NEMO-control or NBD-peptide (100 μM) for the indicated time periods, and cell viability was monitored by the trypan blue dye exclusion method. Percent cell killing was determined as: (number of trypan blue stained cells/total cells)×100. Nuclear extracts were prepared according to Bharti et al. (2003). Briefly, 2×10^6 cells were washed with cold PBS and suspended in 0.4 ml of hypotonic lysis buffer containing protease inhibitors for 30 min. The cells were then lysed with 12.5 μl of 10% Nonidet P-40. […] The nuclear pellet was resuspended in 25-μl ice-cold nuclear extraction buffer. After 30 min of intermittent mixing, the extract was centrifuged, and supernatants containing nuclear extracts were collected. Protein content was measured by the Bradford method. […] NF-kB activation was analyzed by electrophoretic mobility gel shift assay (EMSA) as described previously (Chaturvedi et al., 1994). […] Radioactive bands from the dried gels were visualized and quantitated by Phosphorlmager (Molecular Dynamics, Sunnyvale, Calif.) using ImageQuant software.
# p65 subunit of NF-κB = assay: Immunocytochemistry for NF-κB p65 localization in multiple myeloma cell lines; details: all four multiple myeloma cell lines, curcumin 50 μM, 4 hours
# Method: Red stain indicates the localization of p65 and blue stain (Hoechst) indicates nucleus (magnification 200×). […] U266 cells (2×10^6 cells/ml) were treated with indicated concentrations of NEMO-control or NBD-peptide (100 μM) for the indicated times. Nuclear extracts were then checked for the presence of NF-κB DNA-binding activity by EMSA. […] Untreated or NBD-peptide-treated (100 μM; 12 h) U266 cells were cytospun, and p65 immunocytochemistry was performed as described. Red stain indicates the localization of p65 and blue stain indicates nucleus (magnification 200×). […] U266 cells (2×10^6 cells/ml) were treated with indicated concentrations of NEMO-control or NBD-peptide (100 μM) for the indicated time periods, and cell viability was monitored by the trypan blue dye exclusion method. Percent cell killing was determined as: (number of trypan blue stained cells/total cells)×100. […] Stained slides were mounted with mounting medium (Sigma Colo.) and analyzed under an epifluorescence microscope (Labophot-2, Nikon, Tokyo, Japan). […] Cells with nuclear staining of NF-κB p65 or STAT3 were counted separately. One hundred cells were counted for each specimen, and the sample was graded on the basis of a 4-point scale: −, no nuclear positive cells (0%); +, low number of nuclear positive cells (<10%); ++, moderate number of nuclear positive cells (10–50%); +++, high number of nuclear positive cells (>50%).
# STAT3 = assay: Immunocytochemistry for STAT3 in bone marrow CD138+ cells from multiple myeloma patients; details: patients #5, #9 and #10, 50 μM curcumin, 2 h (legend b30: 1 h)
# Method: The cells were fixed on slides by cytospin centrifugation and immuno-stained for NF-κB or STAT3. Red stain indicates specific staining for NF-κB or STAT3, whereas blue stain indicates the relative position of the nuclei in the corresponding view.
# Red stain indicates the specific staining for NF-κB or STAT3 as indicated, whereas blue stain indicates the relative position of the nuclei in the corresponding view.
# Untreated or treated multiple myeloma cells were plated on a poly-L-lysine-coated glass slide by centrifugation using a Cytospin 4 (Thermoshendon, Pittsburg, Pa.), air-dried for 1 h at room temperature, and fixed with cold acetone. After a brief washing in PBS, slides were blocked with 5% normal goat serum for 1 h and then incubated either with rabbit polyclonal anti-human NF-κB p65 antibody (SC-109; dilution, 1:100) or with anti-human STAT3 antibody (SC-482; dilution, 1:100). After overnight incubation, the slides were washed and then incubated with goat anti-rabbit IgG-Alexa 594 (A-11037; dilution, 1:100) for 1 h and counter-stained for nuclei with Hoechst (50 ng/ml) for 5 min. Stained slides were mounted with mounting medium (Sigma Colo.) and analyzed under an epifluorescence microscope (Labophot-2, Nikon, Tokyo, Japan). […]
smiles,measurement,setting,value
"COc1cc(/C=C/C(=O)CC(=O)/C=C/c2ccc(O)c(OC)c2)ccc1O [curcumin, diferuloylmethane]",time of complete downregulation of NF-κB,NF-κB; MM.1 cells,4 h
same,time of complete downregulation of NF-κB,NF-κB; MM.1R cells,4 h
same,time of complete downregulation of NF-κB,NF-κB; U266 cells,4 h
same,concentration sufficient to fully suppress constitutive NF-κB activation,"NF-κB; U266 cells, 4 h, EMSA",50 µM
same,nuclear translocation of p65,p65 subunit of NF-κB,prevented the translocation of the p65 subunit of NF-κB to the nucleus
same,constitutive STAT3 activation (nuclear localization),STAT3,downregulated this transcripion factor
